Source: US20240254119A1 (THIRD HARMONIC BIO, INC., priority 2022, published 2024)

Assays:
Caco-2 cells = experiment: Caco-2 permeability assay; format: in vitro ADME; settings: for Caco-2: Papp A-B: Caco-2, apical to basolateral
Protocol: (§1) Exemplary compounds were tested for cell permeability in Caco-2, MDCKII-MDR1 and MDCKII-BCRP cell lines with efflux transporter engagement inferred from the efflux ratios determined. Procedures and results are described below. […] This feature of certain compounds is in part due to efflux transporter engagement. See, for instance, exemplary such compounds included in data tables below.
The transport buffer in the study was HBSS with 10.0 mM HEPES at pH 7.40±0.05. Test compound was tested at 2.00 μM bi-directionally in duplicate. Digoxin was tested at 10.0 μM bi-directionally in duplicate, while nadolol and metoprolol were tested at 2.00 μM in A to B direction in duplicate. Final DMSO concentration was adjusted to less than 1%. The plate was incubated for 2 hours in CO2 incubator at 37±1° C., with 5% CO2 at saturated humidity without shaking. And all samples after mixed with acetonitrile containing internal standard were centrifuged at 3200×g for 10 min. For nadolol and metoprolol, 200 μL supernatant solution was diluted with 600 μL ultra-pure water for LC-MS/MS analysis. For digoxin and test compounds, 200 μL supernatant solution was diluted with 200 μL ultra-pure water for LC-MS/MS analysis. Concentrations of test and control compounds in starting solution, donor solution, and receiver solution were quantified by LC-MS/MS methodologies, using peak area ratio of analyte/internal standard.
After transport assay, lucifer yellow rejection assay was applied to determine the Caco-2 cell monolayer integrity.
[…] And permeation of lucifer yellow through the monolayer was measured to evaluate the cellular integrity.
(§2) The apparent permeability coefficient Papp (cm/s) was calculated using the equation: Papp=(dCr/dt)×Vr/(A×C0), where dCr/dt is the cumulative concentration of compound in the receiver chamber as a function of time (μM/s); Vr is the solution volume in the receiver chamber (0.075 mL on the apical side, 0.25 mL on the basolateral side); A is the surface area for the transport, i.e. 0.0804 cm^2 for the area of the monolayer; C0 is the initial concentration in the donor chamber (μM).
The efflux ratio was calculated using the equation: Efflux Ratio=Papp (BA)/Papp(AB).
Percent recovery was calculated using the equation: % Solution Recovery=100×[(Vr×Cr)+(Vd×Cd)]/(Vd×C0), where Vd is the volume in the donor chambers (0.075 mL on the apical side, 0.25 mL on the basolateral side); Cd and Cr are the final concentrations of transport compound in donor and receiver chambers, respectively.

MDR1 (MDR1-MDCKII cells) = molecular target: T1, MDR1 (MDR1-MDCKII cells) (Homo sapiens, UniProt P08183); experiment: Permeability in MDR1-MDCKII cells; format: in vitro ADME; settings: for MDCKII-MDR1: Papp A-B: MDCKII-MDR1, apical to basolateral
T1 construct: host or cells: MDCKII (canine kidney) cells
Protocol: as §1
MDR1-MDCKII cells (obtained from Piet Borst at the Netherlands Cancer Institute) were seeded onto […] membranes (PET) in 96-well insert systems at 2.5×10^5 cells/mL until to 4-7 days for confluent cell monolayer formation.
Test compounds were diluted with the transport buffer (HBSS with 10 mM Hepes, pH7.4) from DMSO stock solution to a concentration of 2.00 μM (DMSO<1%) and applied to the apical or basolateral side of the cell monolayer. Permeation of the test compounds from A to B direction or B to A direction was determined in duplicate. Digoxin was tested at 10.0 μM from A to B direction or B to A direction as well, while nadolol and metoprolol were tested at […] in A to B direction in duplicate. The plate was incubated for 2.5 hours in CO2 incubator at 37±1° C., with 5% CO2 at saturated humidity without shaking. In addition, the efflux ratio of each compound was also determined. Test and reference compounds were quantified by LC-MS/MS analysis based on the peak area ratio of analyte/IS.
After transport assay, Lucifer yellow rejection assay are applied to determine the cell monolayer integrity. Buffers are removed from both apical and basolateral chambers, followed by the addition of 75 μL of 100 μM lucifer yellow in transport buffer and 250 μL transport buffer in apical and basolateral chambers, respectively. The plate is incubated for 30 minutes at 37° C. with 5% CO2 and saturated humidity without shaking. After 30 minutes incubation, 20 μL of lucifer yellow samples are taken from the apical sides, followed by the addition of 60 μL of Transport Buffer. And then 80 μL of lucifer yellow samples are taken from the basolateral sides. The relative fluorescence unit (RFU) of lucifer yellow is measured at 425/528 nm (excitation/emission) with an Envision plate reader.
The apparent permeability coefficient Papp (cm/s) was calculated using the equation: […]
as §2, with “Where” for “The apparent permeability coefficient Papp (cm/s) was calculated using the equation: Papp=(dCr/dt)×Vr/(A×C0), where”, “(μM). The efflux ratio was calculated using the equation: […]” for “(μM).”
Where Vd is the volume in the donor chambers (0.075 mL on the apical side, 0.25 mL on the basolateral side); Cd and Cr are the final concentrations of transport compound in donor and receiver chambers, respectively.

wtKIT = molecular target: T2, wtKIT (Homo sapiens, UniProt P10721); experiment: HTRF biochemical assay, wtKIT (phosphorylation of a peptide substrate); settings: Table 4
T2 construct: 1888289AM in the reaction mixtures
Procedure, shortened: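 HTRF read-out of FAM-peptide (1 µM) phosphorylation after anti-phosphotyrosine antibody addition and EDTA quench. Reaction: 5.0 nM wtKIT, 400 µM ATP, 10 mM Mn2+, HEPES pH 7.5, 1% DMSO, 3 h, 25 °C; optional enzyme-compound preincubation; enzyme level set for 10-20% conversion.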

T1 sequence (P08183 whole entry): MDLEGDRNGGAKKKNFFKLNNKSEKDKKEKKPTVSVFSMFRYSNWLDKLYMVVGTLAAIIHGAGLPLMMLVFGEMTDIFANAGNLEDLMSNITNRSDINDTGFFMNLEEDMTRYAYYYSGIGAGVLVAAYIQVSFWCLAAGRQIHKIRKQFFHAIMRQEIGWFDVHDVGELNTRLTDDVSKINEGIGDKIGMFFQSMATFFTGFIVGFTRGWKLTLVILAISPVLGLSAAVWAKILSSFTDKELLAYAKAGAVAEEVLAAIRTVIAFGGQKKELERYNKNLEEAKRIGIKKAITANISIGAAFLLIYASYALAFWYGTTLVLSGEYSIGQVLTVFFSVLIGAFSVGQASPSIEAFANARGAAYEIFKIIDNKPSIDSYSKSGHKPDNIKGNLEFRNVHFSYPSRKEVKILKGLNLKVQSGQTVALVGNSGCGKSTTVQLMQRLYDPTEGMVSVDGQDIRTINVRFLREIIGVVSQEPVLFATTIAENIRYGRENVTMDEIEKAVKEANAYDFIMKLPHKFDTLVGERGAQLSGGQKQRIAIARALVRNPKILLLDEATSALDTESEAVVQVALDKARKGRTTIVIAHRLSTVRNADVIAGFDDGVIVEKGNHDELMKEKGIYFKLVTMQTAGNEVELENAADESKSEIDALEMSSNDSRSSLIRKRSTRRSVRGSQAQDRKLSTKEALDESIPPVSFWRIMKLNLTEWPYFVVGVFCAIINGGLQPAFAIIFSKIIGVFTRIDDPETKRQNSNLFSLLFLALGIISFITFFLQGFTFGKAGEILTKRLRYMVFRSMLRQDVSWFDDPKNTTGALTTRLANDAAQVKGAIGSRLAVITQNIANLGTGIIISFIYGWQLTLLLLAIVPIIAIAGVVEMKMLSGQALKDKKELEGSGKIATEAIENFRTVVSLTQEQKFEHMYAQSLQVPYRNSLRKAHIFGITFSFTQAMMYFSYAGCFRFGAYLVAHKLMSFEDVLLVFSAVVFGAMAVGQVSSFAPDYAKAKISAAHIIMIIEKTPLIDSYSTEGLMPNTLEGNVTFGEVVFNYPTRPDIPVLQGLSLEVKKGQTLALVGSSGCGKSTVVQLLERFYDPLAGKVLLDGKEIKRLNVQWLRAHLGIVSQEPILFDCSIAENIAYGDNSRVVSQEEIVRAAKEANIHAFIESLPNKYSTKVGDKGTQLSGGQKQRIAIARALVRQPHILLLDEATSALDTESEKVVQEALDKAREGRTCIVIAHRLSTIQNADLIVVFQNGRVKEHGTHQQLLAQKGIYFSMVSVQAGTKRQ
T2 sequence (P10721 26-976): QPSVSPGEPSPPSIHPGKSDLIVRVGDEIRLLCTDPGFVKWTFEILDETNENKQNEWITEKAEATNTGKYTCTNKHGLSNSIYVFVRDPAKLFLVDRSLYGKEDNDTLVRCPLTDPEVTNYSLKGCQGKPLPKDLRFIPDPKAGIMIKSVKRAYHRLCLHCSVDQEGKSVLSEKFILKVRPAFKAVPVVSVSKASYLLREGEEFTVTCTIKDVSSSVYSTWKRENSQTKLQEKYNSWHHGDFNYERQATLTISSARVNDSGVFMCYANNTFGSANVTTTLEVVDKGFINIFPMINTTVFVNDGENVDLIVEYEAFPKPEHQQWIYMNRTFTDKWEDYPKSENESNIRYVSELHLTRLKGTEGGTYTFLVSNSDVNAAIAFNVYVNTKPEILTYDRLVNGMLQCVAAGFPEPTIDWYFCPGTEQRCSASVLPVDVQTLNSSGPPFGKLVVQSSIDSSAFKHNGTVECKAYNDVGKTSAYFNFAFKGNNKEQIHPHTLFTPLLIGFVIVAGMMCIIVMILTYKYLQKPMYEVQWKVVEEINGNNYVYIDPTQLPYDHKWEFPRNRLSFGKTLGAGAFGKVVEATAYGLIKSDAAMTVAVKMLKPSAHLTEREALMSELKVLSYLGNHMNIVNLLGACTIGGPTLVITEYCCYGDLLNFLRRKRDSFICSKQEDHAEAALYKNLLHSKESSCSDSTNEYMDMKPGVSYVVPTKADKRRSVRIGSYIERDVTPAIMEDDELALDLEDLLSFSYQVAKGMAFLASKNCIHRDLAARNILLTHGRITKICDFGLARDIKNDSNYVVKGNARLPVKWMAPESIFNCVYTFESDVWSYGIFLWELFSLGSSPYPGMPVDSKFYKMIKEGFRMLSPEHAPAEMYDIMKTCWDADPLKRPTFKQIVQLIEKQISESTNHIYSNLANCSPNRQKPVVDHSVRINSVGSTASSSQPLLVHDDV

SMILES | Caco-2: Efflux Ratio (Caco-2 cells) | Caco-2: Papp A-B (Caco-2 cells) | MDCKII-MDR1: Efflux Ratio (MDR1 (MDR1-MDCKII cells)) | MDCKII-MDR1: Papp A-B (MDR1 (MDR1-MDCKII cells)) | IC50 (wtKIT)
Cc1ccc(-c2noc(C3CCN3)n2)cc1NC(=O)c1cnc2ccccn12 (racemic) [Compound I-394] | 3.48 | 6.31 10^−6 cm/s | 3.08 | 6.21 10^−6 cm/s | 50 to 500 nM
Cc1ccc(-c2noc(C(C)NS(C)(=O)=O)n2)cc1NC(=O)c1cnc2ccccn12 (single isomer, unassigned) [Compound I-237] | 57.6 | 0.50 10^−6 cm/s | 20.5 | 1.43 10^−6 cm/s | 50 to 500 nM
COCCOCc1ccn2c(C(=O)Nc3cc(-c4noc([C@H]5C[C@@H]5F)n4)ccc3C)cnc2c1 [Compound I-84] | 1.8 | 11.8 10^−6 cm/s | 1.78 | 12.1 10^−6 cm/s | ≤ 50 nM
Cc1ccc(-c2noc([C@H]3C[C@@H]3F)n2)cc1NC(=O)c1cnc2cc(OC(F)(F)F)ccn12 [Compound I-87] | 0.66 | 7.81 10^−6 cm/s | 0.74 | 4.58 10^−6 cm/s | 50 to 500 nM
Cc1ccc(-c2noc([C@H]3C[C@@H]3F)n2)cc1NC(=O)c1cnc2cc(OC(C)C)ccn12 [Compound I-88] | 0.79 | 6.24 10^−6 cm/s | 0.86 | 3.92 10^−6 cm/s | ≤ 50 nM
Cc1ccc(-c2noc(CC(O)C(F)F)n2)cc1NC(=O)c1cnc2ccccn12 (stereo not drawn) [Compound I-114] | 4.4 | 6.74 10^−6 cm/s | 3.67 | 7.8 10^−6 cm/s | ≤ 50 nM
CCCS(=O)(=O)N1CC(c2nc(-c3ccc(Cl)c(NC(=O)c4cnc5ccccn45)c3)no2)C1 [Compound I-220] | 0.25 | 16.5 10^−6 cm/s | 0.71 | 16.3 10^−6 cm/s | ≤ 50 nM
COC(=O)N1CC(c2nc(-c3ccc(C(F)F)c(NC(=O)c4cnc5ccccn45)c3)no2)C1 [Compound I-225] | 1.37 | 9.62 10^−6 cm/s | 1.1 | 15.9 10^−6 cm/s | ≤ 50 nM
Cc1ccc(-c2noc(C3CN(C(=O)CO)C3)n2)cc1NC(=O)c1cnc2ccccn12 [Compound I-287] | 135 | 0.13 10^−6 cm/s | 27.9 | 0.83 10^−6 cm/s | –
Cc1ccc(-c2noc([C@H]3C[C@@H]3F)n2)cc1NC(=O)c1cnc2ccc(F)cn12 [Compound I-288] | 0.56 | 17.4 10^−6 cm/s | 0.51 | 20.6 10^−6 cm/s | ≤ 50 nM
CCCNc1ccn2c(C(=O)Nc3cc(-c4noc([C@H]5C[C@@H]5F)n4)ccc3C)cnc2c1 [Compound I-304] | 0.92 | 4.31 10^−6 cm/s | 1.08 | 3.65 10^−6 cm/s | –
Cc1ccc(-c2noc(CCO)n2)cc1NC(=O)c1cnc2ccccn12 [Compound I-306] | 3.66 | 7.03 10^−6 cm/s | 2.88 | 14.5 10^−6 cm/s | 50 to 500 nM
Cc1ccc(-c2noc(C3(N)CC4(CC(F)(F)C4)C3)n2)cc1NC(=O)c1cnc2ccccn12 [Compound I-307] | 1.79 | 9.28 10^−6 cm/s | 1.93 | 8.84 10^−6 cm/s | –
Cc1ccc(-c2noc(CC(C)(C)O)n2)cc1NC(=O)c1cnc2ccccn12 [Compound I-336] | 2.62 | 9.39 10^−6 cm/s | 1.85 | 15.4 10^−6 cm/s | 50 to 500 nM
COC(=O)N1CC(c2nc(-c3ccc(Cl)c(NC(=O)c4cnc5ccccn45)c3)no2)C1 [Compound I-339] | 0.56 | 22.2 10^−6 cm/s | 0.84 | 22.8 10^−6 cm/s | ≤ 50 nM
O=C(Nc1cc(-c2noc([C@H]3C[C@@H]3F)n2)ccc1Cl)c1cnc2ccccn12 [Compound I-341] | 0.56 | 16.2 10^−6 cm/s | 0.82 | 17.7 10^−6 cm/s | –
Cc1ccc(-c2noc([C@H]3CC(F)(F)CN3)n2)cc1NC(=O)c1cnc2ccccn12 [Compound I-359] | 1.19 | 9.88 10^−6 cm/s | 0.81 | 21.4 10^−6 cm/s | 50 to 500 nM
Cc1ccc(-c2noc(C3CC(OCCF)C3)n2)cc1NC(=O)c1cnc2ccccn12 (stereo not drawn) [Compound I-369] | 0.77 | 20.6 10^−6 cm/s | 0.87 | 24.4 10^−6 cm/s | ≤ 50 nM
Cc1ccc(-c2noc(C3(O)CC(F)(F)C3)n2)cc1NC(=O)c1cnc2ccccn12 [Compound I-380] | 3.45 | 7.5 10^−6 cm/s | 2.34 | 10.9 10^−6 cm/s | –
Cc1ccc(-c2noc(C3CC(F)C3)n2)cc1NC(=O)c1cnc2ccccn12 (stereo not drawn) [Compound I-381] | 0.97 | 17.1 10^−6 cm/s | 0.55 | 5.95 10^−6 cm/s | –
Cc1ccc(-c2noc([C@H]3C[C@@H]3F)n2)cc1NC(=O)c1cnc2ccc(C#N)cn12 [Compound I-384] | 0.90 | 16.5 10^−6 cm/s | 0.88 | 17.9 10^−6 cm/s | –
Cc1ccc(-c2noc(C3CC(C)(F)C3)n2)cc1NC(=O)c1cnc2ccccn12 (stereo not drawn) [Compound I-387] | 0.77 | 14.5 10^−6 cm/s | 0.48 | 7.59 10^−6 cm/s | –
